Activity calls are given as the source filed them.
Tests used:
[1] = biological target: T1, Protein Tat (Human immunodeficiency virus type 1 group M subtype B (isolate HXB2)(HIV-1), UniProt P04608); type: functional;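 further: tat binding to TAR RNA read out by fluorescence polarization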
T1 sequence (P04608 whole entry): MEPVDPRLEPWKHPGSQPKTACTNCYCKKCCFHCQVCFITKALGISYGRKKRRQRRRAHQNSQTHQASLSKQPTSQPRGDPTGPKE

[2] = M. tuberculosis H37Rv growth inhibitors, H37Rv strain (AID 1626); type: functional
[3] = biological target: Mitogen-activated protein kinase 10 (Homo sapiens, UniProt P53779); experiment: Dose response biochemical screening assay for inhibitors of c-Jun N-Terminal Kinase 3 (JNK3). [Related pubchem assays: 746 ]
Chain of Mitogen-activated protein kinase 10 (P53779 whole entry): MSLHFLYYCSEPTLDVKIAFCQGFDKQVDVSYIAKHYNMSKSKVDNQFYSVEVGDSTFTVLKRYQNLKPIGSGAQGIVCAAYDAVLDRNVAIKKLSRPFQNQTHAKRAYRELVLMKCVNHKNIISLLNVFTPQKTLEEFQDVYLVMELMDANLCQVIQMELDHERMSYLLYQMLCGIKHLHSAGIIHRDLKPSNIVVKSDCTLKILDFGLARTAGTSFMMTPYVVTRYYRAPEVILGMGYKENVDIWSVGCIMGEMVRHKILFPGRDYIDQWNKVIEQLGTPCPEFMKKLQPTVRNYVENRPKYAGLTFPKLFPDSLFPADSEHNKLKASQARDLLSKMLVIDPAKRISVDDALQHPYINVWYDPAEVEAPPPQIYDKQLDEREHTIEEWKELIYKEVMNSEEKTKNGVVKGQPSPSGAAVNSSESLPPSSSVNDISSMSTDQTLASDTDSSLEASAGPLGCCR

[4] = biological target: T2, Short transient receptor potential channel 4 (Mus musculus, UniProt Q9QUQ5); experiment: calcium entry via TRPC4 opening agents – cell-based, HEK293 TRPC4/mu-opioid, Fluo-4 calcium, dose response (AID 434937); type: functional
T2 sequence (Q9QUQ5 whole entry): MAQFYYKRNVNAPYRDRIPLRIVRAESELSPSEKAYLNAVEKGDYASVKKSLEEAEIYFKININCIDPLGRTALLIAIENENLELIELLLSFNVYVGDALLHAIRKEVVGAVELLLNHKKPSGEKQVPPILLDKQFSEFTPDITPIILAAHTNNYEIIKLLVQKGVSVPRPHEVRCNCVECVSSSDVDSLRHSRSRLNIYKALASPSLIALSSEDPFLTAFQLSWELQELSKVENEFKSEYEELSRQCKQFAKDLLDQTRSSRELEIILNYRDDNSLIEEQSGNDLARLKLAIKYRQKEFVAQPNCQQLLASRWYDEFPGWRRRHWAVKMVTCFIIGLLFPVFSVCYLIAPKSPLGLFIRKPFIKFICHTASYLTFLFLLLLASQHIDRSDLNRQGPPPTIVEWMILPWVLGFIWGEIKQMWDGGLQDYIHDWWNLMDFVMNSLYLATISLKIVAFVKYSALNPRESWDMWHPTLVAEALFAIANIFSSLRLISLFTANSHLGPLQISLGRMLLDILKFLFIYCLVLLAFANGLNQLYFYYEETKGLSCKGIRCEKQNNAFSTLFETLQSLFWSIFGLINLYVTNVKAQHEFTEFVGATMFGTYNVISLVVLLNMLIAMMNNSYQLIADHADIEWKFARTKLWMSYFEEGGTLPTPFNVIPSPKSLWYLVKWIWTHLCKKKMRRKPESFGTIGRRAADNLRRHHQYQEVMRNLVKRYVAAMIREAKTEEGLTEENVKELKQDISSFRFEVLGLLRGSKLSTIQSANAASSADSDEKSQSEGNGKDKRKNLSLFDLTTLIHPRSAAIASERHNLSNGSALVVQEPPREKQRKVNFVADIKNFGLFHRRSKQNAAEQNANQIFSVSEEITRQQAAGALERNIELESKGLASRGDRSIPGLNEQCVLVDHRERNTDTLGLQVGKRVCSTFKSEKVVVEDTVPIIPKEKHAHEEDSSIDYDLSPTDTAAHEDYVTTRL

[5] = biological target: 5-hydroxytryptamine receptor 1A (Homo sapiens, UniProt P08908); type: functional
Chain of 5-hydroxytryptamine receptor 1A (P08908 whole entry): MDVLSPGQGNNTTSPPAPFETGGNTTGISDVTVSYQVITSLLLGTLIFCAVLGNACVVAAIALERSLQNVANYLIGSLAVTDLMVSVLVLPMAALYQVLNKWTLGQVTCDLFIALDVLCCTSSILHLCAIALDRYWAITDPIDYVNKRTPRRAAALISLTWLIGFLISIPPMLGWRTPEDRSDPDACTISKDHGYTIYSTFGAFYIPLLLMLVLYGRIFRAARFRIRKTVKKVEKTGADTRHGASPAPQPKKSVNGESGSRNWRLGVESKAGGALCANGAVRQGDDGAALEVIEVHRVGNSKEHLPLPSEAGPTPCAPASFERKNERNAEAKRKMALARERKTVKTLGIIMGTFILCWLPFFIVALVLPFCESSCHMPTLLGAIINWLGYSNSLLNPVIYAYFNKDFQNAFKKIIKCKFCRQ

[6] = toxicity to human HepG2 hepatoma cells – cell-based, plate reader, dry powder samples, cytotoxicity control, dose response (AID 1159569); type: functional;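 further: inhibitor potency with signal falling toward the positive control level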
[7] = Dd2 malaria parasite growth inhibition potency – SYBR Green, dry powder samples, dose response (AID 1159566); type: functional, cell-based;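 further: potency for growth inhibition with lower SYBR green DNA signal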
[8] = growth inhibition of yeast DHODH-expressing 3D7 parasites – SYBR Green, dry powder samples, dose response (AID 1159570); type: functional, cell-based;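 further: parasite growth measured after 72 hours of compound exposure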
[9] = growth inhibition of PfATP4-mutant resistant parasites – NITD609-resistant line, SYBR Green, dry powder, dose response (AID 1159571); type: functional, cell-based;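 further: parasites synchronized at ring stage by sorbitol before testing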
[10] = P. falciparum Dd2 growth inhibitors, dose response, SYBR Green, cherry-picked samples (AID 1159567); type: functional, cell-based
[11] = M. tuberculosis growth inhibition, HTS (AID 449762); type: functional
[12] = Luminescence Cell-Based Dose Retest to Confirm Inhibitors of Cancer Stem Cells. [Related pubchem assays (depositor defined):AID2717, AID2721]; type: functional; settings: Homo sapiens
[13] = Reduced DLD-1 viability, concentration-response, CellTiter-Glo luminescence (AID 1117352); type: functional
[14] = HCT116 cell viability decrease, GSK3B pretreatment – CellTiter-Glo, IC50, dose response (AID 1117339); type: functional; settings: HCT-116
[15] = cytotoxicity toward HT-29 cells – cell-based, CellTiter-Glo luminescence, IC50, dose response (AID 1117330); type: functional
[16] = cytotoxicity toward HCT116 cells – cell-based, CellTiter-Glo luminescence, IC50, dose response (AID 1117332); type: functional; settings: HCT-116
[17] = RKO cell viability reduction, dose response, CellTiter-Glo luminescence (AID 1117322); type: functional
[18] = cytotoxicity toward Colo320 cells – cell-based, CellTiter-Glo luminescence, IC50, dose response (AID 1117334); type: functional; settings: COLO 320
[19] = SNU-C1 cell viability reduction, dose response, CellTiter-Glo luminescence (AID 1117323); type: functional, cell-based
[20] = CellTiter-Glo luminescence survival assay, SW480 colon tumor line, concentration-response curve, half-maximal inhibitory concentration (AID 1117338); type: functional
[21] = system: H4; experiment: Luminescence Cell-Based Dose Response HTS to Identify Activators of 5'UTR Stem-Loop Driven Prion Protein mRNA Translation in H4 Neuroglioblastoma Cells. [Related pubchem assays: 1829 (Project Summary), 1814 (Primary HTS)]; type: functional; settings: Homo sapiens
[22] = T. cruzi growth inhibition in host cells, dose response, cell-based, plate reader, dry powder, set 2 (AID 652275); type: functional
[23] = intracellular Chagas parasite inhibition in myoblasts – Tulahuen strain, L-6 host cells, dry powder, dose response (AID 651890); type: functional, cell-based
[24] = African trypanosome bloodstream form growth inhibition – STIB900 strain, plate reader, dry powder, dose response (AID 651894); type: functional, cell-based
[25] = antileishmanial activity on axenic amastigotes – plate reader, dry powder, dose response (AID 651892); type: functional, cell-based
[26] = host muscle cell viability loss – plate reader, dry powder, counter-screen for T. cruzi inhibitor project, dose response (AID 651895); type: functional, cell-based
[27] = Trypanosoma cruzi replication inhibitors in host cells – cell-based, plate reader, dry powder samples, dose response (AID 651845); type: functional
[28] = antimalarial activity against erythrocytic parasites – NF54 strain, plate reader, dry powder, dose response (AID 651889); type: functional, cell-based
[29] = anti-trypanosomal activity in BESM host cells – imaging, CA-I/72 strain, bovine embryo skeletal muscle, dry powder, dose response (AID 651885); type: functional, cell-based

For `COc1ccc(NC(=O)CCCSc2ccccc2)cc1`, the IC50 [1] was > 100 µM (active) and the IC50 [2] was > 100 µM (active).
In the case of `COc1ccc2c(c1)c1ncn(Cc3ccco3)c(=O)c1n2C`, the IC50 [3] is reported as 90 µM (not active).
For `c1ccc2sc(C3CCCNC3)nc2c1` (stereo not given), the EC50 [4] was 0.0093 µM (active) and the EC50 [5] was > 50 µM (not active).
For `CCC(=O)N1CCC2(CC1)CN(Cc1cc(F)ccc1F)[C@H](CO)c1[nH]c3cc(OC)ccc3c12`, the AC50 [6] was > 100 µM (inactive), the AC50 [7] was 1.96 µM (active) and the AC50 [8] was 1.83 µM (active). The AC50 [9] was 1.43 µM (active) and the AC50 [10] was 2.98 µM (active).
For `COc1ccc(N/N=C(\C=O)C(=O)c2cccs2)cc1`, the IC50 [11] was > 100 µM (active) and the AC50 [12] was 3.43 µM (active).
With `Cc1cc2nc3c(=O)[nH]c(=O)nc-3n(C[C@H](O)[C@H](O)[C@H](O)COP(=O)(O)OP(=O)(O)OC[C@H]3O[C@@H](n4cnc5c(N)ncnc54)[C@H](O)[C@H]3O)c2cc1C` the IC50 [13] was > 20 µM (inactive), the IC50 [14] was > 20 µM (inactive) and the IC50 [15] was > 20 µM (inactive). The IC50 [16] was > 20 µM (inactive), the IC50 [17] was > 20 µM (inactive) and the IC50 [18] was > 20 µM (inactive). For the same compound, the IC50 [19] was > 20 µM (inactive) and the IC50 [20] was > 20 µM (inactive).
For `Oc1[nH]c2ccccc2c1/C=N/c1ccc2c(c1)OCO2`, the EC50 [21] was 1.25 µM (active) and the IC50 [3] was > 93.1 µM (not active).
In the case of `C[C@H](CO)N1C[C@H](C)[C@@H](CN(C)Cc2ccc(Oc3ccccc3)cc2)Oc2c(NC(=O)c3ccncc3)cccc2C1=O`, the AC50 [22] is reported as 0.000469 µM (active), the IC50 [23] is reported as 0.0215 µM (active) and the IC50 [24] is reported as 3.73 µM (inactive). For the same compound, the IC50 [25] was 26.3 µM (inactive), the IC50 [26] was 17.9 µM (inactive) and the AC50 [27] was 0.00152 µM (active). The IC50 [28] was 0.872 µM (inactive) and the IC50 [29] was > 20 µM (inactive).
